Key:
Assay type in all cases: functional
[1] = system: CCRF-CEM; assay: Antiproliferative activity against human CCRF-CEM cells assessed as cell viability at 10^-5 M incubated for 48 hrs by sulforhodamine B assay relative to control; conditions: read-out: Activity
[2] = system: HL-60(TB); assay: Antiproliferative activity against human HL-60(TB) cells assessed as cell viability at 10^-5 M incubated for 48 hrs by sulforhodamine B assay relative to control; conditions: HL-60, 48 h, read-out: Activity
[3] = system: MOLT-4; assay: Antiproliferative activity against human MOLT4 cells assessed as cell viability at 10^-5 M incubated for 48 hrs by sulforhodamine B assay relative to control; conditions: MOLT-4, 48 h, read-out: Activity
[4] = system: RPMI-8226; assay: Antiproliferative activity against human RPMI8226 cells assessed as cell viability at 10^-5 M incubated for 48 hrs by sulforhodamine B assay relative to control; conditions: RPMI-8226, 48 h, read-out: Activity
[5] = system: SR; assay: Antiproliferative activity against human SR cells assessed as cell viability at 10^-5 M incubated for 48 hrs by sulforhodamine B assay relative to control; conditions: read-out: Activity
[6] = system: EKVX; assay: Antiproliferative activity against human EKVX cells assessed as cell viability at 10^-5 M incubated for 48 hrs by sulforhodamine B assay relative to control; conditions: read-out: Activity
[7] = system: HOP-62; assay: Antiproliferative activity against human HOP62 cells assessed as cell viability at 10^-5 M incubated for 48 hrs by sulforhodamine B assay relative to control; conditions: HOP-62, 48 h, read-out: Activity
[8] = system: NCI-H226; assay: Antiproliferative activity against human NCI-H226 cells assessed as cell viability at 10^-5 M incubated for 48 hrs by sulforhodamine B assay relative to control; conditions: NCI-H226, 48 h, read-out: Activity
[9] = system: NCI-H322M; assay: Antiproliferative activity against human NCI-H322M cells assessed as cell viability at 10^-5 M incubated for 48 hrs by sulforhodamine B assay relative to control; conditions: read-out: Activity
[10] = system: NCI-H522; assay: Antiproliferative activity against human NCI-H522 cells assessed as cell viability at 10^-5 M incubated for 48 hrs by sulforhodamine B assay relative to control; conditions: NCI-H522, 48 h, read-out: Activity
[11] = system: HCC 2998; assay: Antiproliferative activity against human HCC2998 cells assessed as cell viability at 10^-5 M incubated for 48 hrs by sulforhodamine B assay relative to control; conditions: HCC 2998, 48 h, read-out: Activity
[12] = system: KM12; assay: Antiproliferative activity against human KM12 cells assessed as cell viability at 10^-5 M incubated for 48 hrs by sulforhodamine B assay relative to control; conditions: KM12, 48 h, read-out: Activity
[13] = system: SW-620; assay: Antiproliferative activity against human SW620 cells assessed as cell viability at 10^-5 M incubated for 48 hrs by sulforhodamine B assay relative to control; conditions: SW-620, 48 h, read-out: Activity
[14] = system: SF-268; assay: Antiproliferative activity against human SF268 cells assessed as cell viability at 10^-5 M incubated for 48 hrs by sulforhodamine B assay relative to control; conditions: SF-268, 48 h, read-out: Activity
[15] = system: SF-295; assay: Antiproliferative activity against human SF295 cells assessed as cell viability at 10^-5 M incubated for 48 hrs by sulforhodamine B assay relative to control; conditions: SF-295, 48 h, read-out: Activity
[16] = system: SF-539; assay: Antiproliferative activity against human SF539 cells assessed as cell viability at 10^-5 M incubated for 48 hrs by sulforhodamine B assay relative to control; conditions: SF-539, 48 h, read-out: Activity
[17] = system: SNB-75; assay: Antiproliferative activity against human SNB75 cells assessed as cell viability at 10^-5 M incubated for 48 hrs by sulforhodamine B assay relative to control; conditions: SNB-75, 48 h, read-out: Activity
[18] = system: M14; assay: Antiproliferative activity against human M14 cells assessed as cell viability at 10^-5 M incubated for 48 hrs by sulforhodamine B assay relative to control; conditions: M14, 48 h, read-out: Activity
[19] = system: MDA-MB-435; assay: Antiproliferative activity against human MDA-MB-435 cells assessed as cell viability at 10^-5 M incubated for 48 hrs by sulforhodamine B assay relative to control; conditions: MDA-MB-435, 48 h, read-out: Activity
[20] = system: SK-MEL-2; assay: Antiproliferative activity against human SK-MEL-2 cells assessed as cell viability at 10^-5 M incubated for 48 hrs by sulforhodamine B assay relative to control; conditions: SK-MEL-2, 48 h, read-out: Activity
[21] = system: IGROV-1; assay: Antiproliferative activity against human IGROV1 cells assessed as cell viability at 10^-5 M incubated for 48 hrs by sulforhodamine B assay relative to control; conditions: IGROV-1, 48 h, read-out: Activity
[22] = system: OVCAR-3; assay: Antiproliferative activity against human OVCAR3 cells assessed as cell viability at 10^-5 M incubated for 48 hrs by sulforhodamine B assay relative to control; conditions: OVCAR-3, 48 h, read-out: Activity
[23] = system: OVCAR-8; assay: Antiproliferative activity against human OVCAR8 cells assessed as cell viability at 10^-5 M incubated for 48 hrs by sulforhodamine B assay relative to control; conditions: OVCAR-8, 48 h, read-out: Activity
[24] = system: NCI/ADR-RES; assay: Antiproliferative activity against human NCI-ADR-RES cells assessed as cell viability at 10^-5 M incubated for 48 hrs by sulforhodamine B assay relative to control; conditions: read-out: Activity
[25] = system: ACHN; assay: Antiproliferative activity against human ACHN cells assessed as cell viability at 10^-5 M incubated for 48 hrs by sulforhodamine B assay relative to control; conditions: read-out: Activity
[26] = system: SN12C; assay: Antiproliferative activity against human SN12C cells assessed as cell viability at 10^-5 M incubated for 48 hrs by sulforhodamine B assay relative to control; conditions: read-out: Activity
[27] = system: TK-10; assay: Antiproliferative activity against human TK10 cells assessed as cell viability at 10^-5 M incubated for 48 hrs by sulforhodamine B assay relative to control; conditions: TK-10, 48 h, read-out: Activity
[28] = system: UO-31; assay: Antiproliferative activity against human UO31 cells assessed as cell viability at 10^-5 M incubated for 48 hrs by sulforhodamine B assay relative to control; conditions: UO-31, 48 h, read-out: Activity
[29] = system: PC-3; assay: Antiproliferative activity against human PC3 cells assessed as cell viability at 10^-5 M incubated for 48 hrs by sulforhodamine B assay relative to control; conditions: PC-3, 48 h, read-out: Activity
[30] = system: DU-145; assay: Antiproliferative activity against human DU145 cells assessed as cell viability at 10^-5 M incubated for 48 hrs by sulforhodamine B assay relative to control; conditions: DU-145, 48 h, read-out: Activity
[31] = system: MCF7; assay: Antiproliferative activity against human MCF7 cells assessed as cell viability at 10^-5 M incubated for 48 hrs by sulforhodamine B assay relative to control; conditions: MCF7, 48 h, read-out: Activity
[32] = system: Hs-578T; assay: Antiproliferative activity against human Hs 578T cells assessed as cell viability at 10^-5 M incubated for 48 hrs by sulforhodamine B assay relative to control; conditions: read-out: Activity
[33] = system: T47D; assay: Antiproliferative activity against human T47D cells assessed as cell viability at 10^-5 M incubated for 48 hrs by sulforhodamine B assay relative to control; conditions: read-out: Activity

Compound | viability at 10 µM [1] [%] | viability at 10 µM [2] [%] | viability at 10 µM [3] [%] | viability at 10 µM [4] [%] | viability at 10 µM [5] [%] | viability at 10 µM [6] [%] | viability at 10 µM [7] [%] | viability at 10 µM [8] [%] | viability at 10 µM [9] [%] | viability at 10 µM [10] [%] | viability at 10 µM [11] [%] | viability at 10 µM [12] [%] | viability at 10 µM [13] [%] | viability at 10 µM [14] [%] | viability at 10 µM [15] [%] | viability at 10 µM [16] [%] | viability at 10 µM [17] [%] | viability at 10 µM [18] [%] | viability at 10 µM [19] [%] | viability at 10 µM [20] [%] | also measured
COc1cc2c(c(OC)c1OC)C(=O)NC1C2CC(O)C(O)C1O (racemic) | 104 | 99.3 | 104 | 102 | 95.6 | 103 | 102 | 102 | 104 | 97.7 | 101 | 108 | 109 | 103 | 98.3 | 100 | 102 | 98.5 | 110 | 117 | viability at 10 µM [21]: 111%; viability at 10 µM [22]: 112%; viability at 10 µM [23]: 97.3%; viability at 10 µM [24]: 108%; viability at 10 µM [25]: 99.7%; viability at 10 µM [26]: 104%; viability at 10 µM [27]: 98.5%; viability at 10 µM [28]: 87.1%; viability at 10 µM [29]: 96.5%; viability at 10 µM [30]: 110%; viability at 10 µM [31]: 96.1%; viability at 10 µM [32]: 108%; viability at 10 µM [33]: 100%
CCOc1c(OC)cc2c(c1OCC)C(=O)NC1C2CC(O)C(O)C1O (racemic) | 102 | 86.6 | 80.9 | 106 | 90.3 | 97.5 | 106 | 97.4 | 98.6 | 88.9 | 104 | 102 | 106 | 91.3 | 98.7 | 106 | 92.4 | 99.1 | 105 | 103 | viability at 10 µM [21]: 103%; viability at 10 µM [22]: 103%; viability at 10 µM [23]: 97.1%; viability at 10 µM [24]: 109%; viability at 10 µM [25]: 104%; viability at 10 µM [26]: 101%; viability at 10 µM [27]: 97.1%; viability at 10 µM [28]: 81.8%; viability at 10 µM [29]: 93.3%; viability at 10 µM [30]: 110%; viability at 10 µM [31]: 95.2%; viability at 10 µM [32]: 99.3%; viability at 10 µM [33]: 106%
CCOc1cc2c(c(O)c1OCC)C(=O)NC1C2CC(O)C(O)C1O (racemic) | 103 | 102 | 103 | 102 | 91.7 | 99.7 | 101 | 105 | 97.6 | 92.6 | 101 | 106 | 112 | 96.4 | 98.7 | 102 | 93.4 | 100 | 109 | 109 | viability at 10 µM [21]: 109%; viability at 10 µM [22]: 104%; viability at 10 µM [23]: 97%; viability at 10 µM [24]: 107%; viability at 10 µM [25]: 106%; viability at 10 µM [26]: 103%; viability at 10 µM [27]: 99.1%; viability at 10 µM [28]: 89.4%; viability at 10 µM [29]: 100%; viability at 10 µM [30]: 105%; viability at 10 µM [31]: 90.9%; viability at 10 µM [32]: 89.9%; viability at 10 µM [33]: 90.4%
CCOc1cc2c(c(OC)c1OCC)C(=O)NC1C2CC(O)C(O)C1O (racemic) | 96.9 | 86.8 | 99.3 | 101 | 95.8 | 99.1 | 104 | 99.1 | 106 | 93.3 | 107 | 103 | 109 | 95.4 | 102 | 102 | 98.8 | 107 | 107 | 110 | viability at 10 µM [21]: 112%; viability at 10 µM [22]: 102%; viability at 10 µM [23]: 99.8%; viability at 10 µM [24]: 105%; viability at 10 µM [25]: 104%; viability at 10 µM [26]: 104%; viability at 10 µM [27]: 100%; viability at 10 µM [28]: 96.1%; viability at 10 µM [29]: 96.9%; viability at 10 µM [30]: 106%; viability at 10 µM [31]: 97.6%; viability at 10 µM [32]: 99.8%; viability at 10 µM [33]: 96.3%
CCOc1cc2c(c(OCC)c1OCC)C(=O)NC1C2CC(O)C(O)C1O (racemic) | 99.1 | 96.1 | 99.2 | 102 | 96.2 | 97.3 | 102 | 96.3 | 97.8 | 89.2 | 107 | 103 | 107 | 99.5 | 100 | 97 | 93 | 103 | 104 | 99.2 | viability at 10 µM [21]: 108%; viability at 10 µM [22]: 104%; viability at 10 µM [23]: 102%; viability at 10 µM [24]: 108%; viability at 10 µM [25]: 105%; viability at 10 µM [26]: 108%; viability at 10 µM [27]: 98.5%; viability at 10 µM [28]: 88.4%; viability at 10 µM [29]: 89.4%; viability at 10 µM [30]: 113%; viability at 10 µM [31]: 95.6%; viability at 10 µM [32]: 99.1%; viability at 10 µM [33]: 100%

From ChEMBL document CHEMBL4346705, “(±)-trans-Dihydronarciclasine and (±)-trans-dihydrolycoricidine analogues modified in their ring A: Evaluation of their anticancer activity and a SAR study” (2019)
